{"source": "paper PMC4364779", "about": "“IMD-4690, a Novel Specific Inhibitor for Plasminogen Activator Inhibitor-1, Reduces Allergic Airway Remodeling in a Mouse Model of Chronic Asthma via Regulating Angiogenesis and Remodeling-Related Mediators” (PLoS ONE, 2015)", "origin": "cited, not measured here", "system": "murine model of chronic asthma", "set-up": "method as in PMID 22323366", "conditions": "cited from earlier work"}
{"smiles": "O=C(O)C(=O)c1cn(Cc2ccccc2)c2ccc(-c3ccc(OC(F)(F)F)cc3)cc12", "note": "[tiplaxtinin]", "values": [{"measurement": "Allergic airway inflammation and lung collagen deposition", "value": "attenuated"}]}
